The source of these data is patent publication US4293557A, “Antiulcer phenoxypropylamine derivatives” (Teikoku Hormone Mfg. Co., Ltd., priority 1979, dated 1981).

Series [1] concerns the target T1, histamine H2 receptor (Cavia porcellus, UniProt P47747).
T1 construct: histamine-induced chronotropic response, pA2
The series can be described thus: Measurement of histamine H2 receptor antagonizing activity (isolated right atrium, histamine dose-response of heart beat). Details: species or system Hartley. To be noted: isolated guinea pig right atrium; test compound 1×10^-5 M; negative logarithm of molar concentration required to double the histamine concentration; Van Rossum method. The method, then: (1) Measurement of histamine H2 receptor antagonizing activity
A guinea pig, Hartley, (male 400-550 g) was struck at the head to let out blood, and the heart was enucleated. The right atrium was separated in a Tyrod solution saturated with oxygen, and a silk thread was attached to its both ends. Using the silk threads at both ends, the atrium was suspended under a tension of 700 mg in a Magnus tube (25 ml) containing a Tyrod solution maintained at 36° C. through which mixture of 95% of O2 and 5% of CO2 was passed. The contracting motion of the atrium was recorded by a force-displacement transducer, and the number of heart beats was calculated.
Histamine (used in the form of diphosphate; the same hereinbelow) was cumulatively added to the Magnus tube in a concentration of 1×10^-8 M to 1×10^-4 M in such an amount that the logarithm of the amount provides an equal interval of 1/2, until a maximum increase in heart beat was obtained. Thus, the dose-response curve of histamine was obtained. The inside of the Magnus tube was washed several times with a Tyrod solution, and the atrium was stabilized for 1 hour. Then, the above procedure was repeated to obtain the dose-response curve of histamine again. The inside of the Magnus tube was washed several times, and the tissues were stabilized for 50 minutes. Then, a test compound (1×10^-5 M) was added to the Magnus tube, and after 20 minutes, the dose-response curve of histamine in the presence of the test compound was obtained.
The PA2 value (the negative logarithm of the molar concentration of the test compound required to double the concentration of histamine in the Magnus tube required to induce a certain reaction) was calculated from the dose-response curve of histamine obtained in the second operation and the dose-response curve of histamine in the presence of the test compound in accordance with the method of J. M. Van Rossum (Arch. int. Pharmacodyn., 143, 299, 1963).

Series [2] is described as follows: in vivo. To be noted: mouse, oral, 5% Tween 80 suspension, male ddY mice 19-22 g, Litchfield-Wilcoxon method.

T1 sequence (P47747 whole entry): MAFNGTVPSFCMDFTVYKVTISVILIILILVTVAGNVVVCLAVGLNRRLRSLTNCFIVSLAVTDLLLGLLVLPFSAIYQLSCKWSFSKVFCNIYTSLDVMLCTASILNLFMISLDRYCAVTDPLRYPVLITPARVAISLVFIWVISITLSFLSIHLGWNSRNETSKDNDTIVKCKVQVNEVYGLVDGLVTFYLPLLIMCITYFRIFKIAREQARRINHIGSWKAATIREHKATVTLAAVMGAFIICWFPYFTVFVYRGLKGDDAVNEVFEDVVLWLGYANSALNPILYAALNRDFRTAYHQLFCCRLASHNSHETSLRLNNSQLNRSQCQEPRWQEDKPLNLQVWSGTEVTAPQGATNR

As to `CC(c1cccc(OCCCNC(=O)CCN)c1)N1CCCC1` (centres unmarked) [N, N-(3-Aminopropionyl)-3-[3-[1-(1-pyrrolidinyl)ethyl]phenoxy]propylamine], the PA2 in series [1] stood at 6.26.

In the case of `CCC(=O)OCC(=O)NCCCOc1cccc(CN2CCCCC2)c1` [S, N-[3-[3-(1-Piperidinylmethyl)phenoxy]propyl]propionyloxyacetamide], the PA2 in series [1] is recorded as 6.77.

`CC(=O)OCC(=O)NCCCOc1cccc(CN2CCCCC2)c1` [Q, N-[3-[3-(1-Piperidinylmethyl)phenoxy]propyl]acetoxyacetamide]: the PA2 in series [1] is reported as 7.10.

Regarding `CC(=O)OCC(=O)NCCCOc1cccc(CN2CCCCCC2)c1` [R, N-[3-[3-(1-Perhydroazepinylmethyl)phenoxy]propyl]acetoxyacetamide], the PA2 in series [1] was 6.28.

The compound `O=CNCCCOc1cccc(CN2CCCCC2)c1` [C, N-[3-[3-(1-Piperidinylmethyl)phenoxy]propyl]formamide] gave a PA2 in series [1] of 6.50.

On to `CCC(c1cccc(OCCCNC(C)=O)c1)N1CCCC1` (centres unmarked) [G, N-[3-[3-[1-(1-Pyrrolidinyl)propyl]phenoxy]propyl]acetamide], for which the PA2 in series [1] is given as 6.47.

`O=C(COC(=O)c1ccccc1)NCCCOc1cccc(CN2CCCCC2)c1` [T, N-[3-[3-(1-Piperidinylmethyl)phenoxy]propyl]benzoyloxyacetamide]: the PA2 in series [1] worked out at 6.74.

As to `CC(=O)OCC(=O)NCCCOc1cccc(C(C)N2CCCC2)c1` (centres unmarked) [P, N-[3-[3-[1-(1-Pyrrolidinyl)ethyl]phenoxy]propyl]acetoxyacetamide], in series [1], the PA2 was 6.11.

With `CC(c1cccc(OCCCNC=O)c1)N1CCCC1` (centres unmarked) [A, N-[3-[3-[1-(1-Pyrrolidinyl)ethyl]phenoxy]propyl]formamide], in series [2], the LD50 at 72 h worked out at 2500 mg/kg. This compound showed a PA2 in series [1] of 6.12.

`CC(=O)NCCCOc1cccc(C(C)N2CCCC2)c1` (centres unmarked) [F, N-[3-[3-[1-(1-Pyrrolidinyl)ethyl]phenoxy]propyl]acetamide] registered an LD50 at 72 h in series [2] of 2100 mg/kg. Besides, the PA2 in series [1] came out at 6.16.

As to `O=C(CO)NCCCOc1cccc(CN2CCCCCC2)c1` [M, N-[3-[3-(1-Perhydroazepinylmethyl)phenoxy]propyl]hydroxyacetamide], the PA2 in series [1] turned out to be 6.29.

In turn, `CC(c1cccc(OCCCNC=O)c1)N1CCC(O)C1` (centres unmarked) [E] registered a PA2 in series [1] of 5.99.

For the compound `CCC(=O)NCCCOc1cccc(C(C)N2CCCC2)c1` (centres unmarked) [J, N-[3-[3-[1-(1-Pyrrolidinyl)ethyl]phenoxy]propyl]propionamide], the PA2 in series [1] was determined as 6.04.

`CC(c1cccc(OCCCNC(=O)CO)c1)N1CCCC1` (centres unmarked) [K, N-[3-[3-[1-(1-Pyrrolidinyl)ethyl]phenoxy]propyl]hydroxyacetamide] came in with a PA2 in series [1] of 5.83.

As to `CC(=O)NCCCOc1cccc(CN2CCCCC2)c1` [H, N-[3-[3-(1-Piperidinylmethyl)phenoxy]propyl]acetamide], in series [1], the PA2 was 6.52.

Compound `CCC(c1cccc(OCCCNC=O)c1)N1CCCC1` (centres unmarked) [B] had a PA2 in series [1] of 6.49.

In turn, `CC(=O)NCCCOc1cccc(C(C)N2CCCCC2)c1` (centres unmarked) [I, N-[3-[3-[1-(1-Piperidinyl)ethyl]phenoxy]propyl]acetamide] gave a PA2 in series [1] of 5.97.

Take `O=C(COC(=O)c1ccc(Cl)c(Cl)c1)NCCCOc1cccc(CN2CCCCCC2)c1` [U, N-(3,4-Dichlorobenzoyloxyacetyl)-3-[3-(1-perhydroazepinylmethyl)phenoxy]propylamine]: the PA2 in series [1] is recorded as 6.80.

`COCC(=O)NCCCOc1cccc(CN2CCCCC2)c1` [O, N-[3-[3-(1-Piperidinylmethyl)phenoxy]propyl]methoxyacetamide] had a PA2 in series [1] of 6.62.

For `CC(c1cccc(OCCCNC=O)c1)N1CCCCCC1` (centres unmarked) [D, N-[3-[3-(1-(1-Perhydroazepinyl)ethyl]phenoxy]propyl]formamide], the PA2 in series [1] is recorded as 6.14.

`O=C(CO)NCCCOc1cccc(CN2CCCCC2)c1` [L, N-[3-[3-(1-Piperidinylmethyl)phenoxy]propyl]hydroxyacetamide] displayed a PA2 in series [1] of 6.79.
